# Test results: US5734057A, “HIV protease inhibitors and intermediates” (Eli Lilly and Company, priority 1996, dated 1998)
# Read-outs that look alike come from different tables or passages of the source.
# Tests used:
# HIV-1 protease = molecular target: T1, HIV-1 protease (Human immunodeficiency virus type 1 group M subtype B, UniProt P04585); assay: biochemical; conditions: for IC50: read-out: Inhibitory Activity, Fluorescence Assay IC50 (converted)
# T1 construct: HIV-1 Protease
# Experimental: These compounds may be assayed using two assays: (1) an enzyme inhibition assay, and (2) an antiviral cell culture assay.
# This assay is described in detail in published European Patent Application (EPA) 0 526 009, herein incorporated by reference. Using this assay, a number of the compounds, prepared above, were assayed for HIV protease inhibitory activity.
# The assay is unable to test compounds at less than a concentration of 0.16 ng/mL.
# HIV = assay: Antiviral cell culture assay (XTT viability of HIV-infected cells); format: cell-based
# Source text: As noted above, the compounds of formula (I) are useful as HIV protease inhibitors and for preparing HIV protease inhibitors. These compounds may be assayed using two assays: (1) an enzyme inhibition assay, and (2) an antiviral cell culture assay.
# In addition, the compounds described in the present application may be tested using an antiviral cell culture assay as described in Weislow, O. S., J. of National Cancer Institute, 81(8), pages 577-586 (Apr. 19, 1989) herein incorporated by reference.
# This assay compares the viability of HIV-infected cells in a cell culture medium relative to the viability of such cells in the presence of a test compound. The concentration of test compound necessary to inhibit 90% of the virus is then measured using the viability of the cells as an indicator of viral inhibition. This assay is carried out using cell lines that are sensitive to the lyric effects of HIV infection.
# Specifically, this assay utilizes the metabolic reduction of a tetrazolium reagent, 2,3-bis[2-methoxy-4-nitro-5-sulfophenyl]-5-[(phenylamino carbonyl]-2H-tetrazolium hydroxide (XTT). In the presence of a viable cell, the tetrazolium reagent, XTT, ms reduced to provide XTT formazan which may be quantified using colorimetric determination (at 450 nm). The intensity of the chromogenic signal is directly proportional to the concentration of the XTT formazan, thus providing a measure of the quantity of viable cells.
# The compounds prepared in Examples 9 and 10, above, were tested using this assay.
# [1] = concentration that inhibits 50% of the enzyme, assay limit 0.16 ng/mL
# [2] = Human immunodeficiency virus 1, concentration that inhibits 90%
IC50 (HIV-1 protease; [1]) [nM],IC90 (HIV; [2]) [nM],"inhibition at 0.00016 µg/mL (HIV-1 protease; at 0.16 ng/mL, read-out: % inhibition at stated concentration (IC74 (0.16))) [%]",IC90 (HIV; concentration that inhibits 90%) [nM],Compound,IC50 (HIV-1 protease) [nM]
6.3,2000,,,"CC(C)(C)NC(=O)[C@@H]1C[C@@H]2SCC[C@@H]2CN1C[C@@H](O)[C@H](Cc1ccccc1)NC(=O)OCc1ccccc1 [Example 5, N-t-Butyl-octahydro-5[2R-hydroxy-4-phenyl-3S-N(benzyloxycarbonyl)amino-butyl]-(3aR,7aS)-thieno[3,2-c]pyridine-(6S)-carboxamide]",
,,,,"CC(C)(C)NC(=O)[C@@H]1C[C@@H]2SCC[C@@H]2CN1C[C@@H](O)[C@H](CSc1ccccc1)NC(=O)OCc1ccccc1 [Example 7, N-t-Butyl-octahydro-5[2R-hydroxy-4-thiophenyl-3R-N(benzyloxycarbonyl)amino-butyl]-(3aR,7aS)-thieno[3,2-c] pyridine-(6S)-carboxamide]",3.32
,,74,10,"Cc1c(O)cccc1C(=O)N[C@@H](CSc1ccccc1)[C@H](O)CN1C[C@H]2CCS[C@H]2C[C@H]1C(=O)NC(C)(C)C [Example 10, N-t-Butyl-octahydro-5[2R-hydroxy-3R-N(2'-methyl-3'-hydroxyphenylcarbonyl)amino-4-phenylthio-butyl]-(3aR,7aS)-thieno[3,2-c] pyridine-(6S)-carboxamide methanesulfonate]",
0.315,17,,,"Cc1c(O)cccc1C(=O)N[C@@H](CSc1ccccc1)[C@H](O)CN1C[C@H]2CCS[C@H]2C[C@H]1C(=O)NC(C)(C)C [Example 9, N-t-Butyl-octahydro-5[2R-hydroxy-3R-N(2'-methyl-3'-hydroxyphenylcarbonyl)amino-4-phenylthio-butyl]-(3aR,7aS)-thieno[3,2-c] pyridine-(6S)-carboxamide]",
